In ChEMBL document CHEMBL5608241, “Discovery of Novel Non-nucleoside DOT1LR231Q Inhibitors with Improved Pharmacokinetic Properties and Anti-lung Cancer Efficacy” (J Med Chem, 2024):

What was measured:
[1] = tested on: NCI-H460; assay: Antiproliferative activity against human NCI-H460 cells harboring wildtype DOT1L (unknown origin) (1 to 416 residues) assessed as inhibition of cell proliferation incubated for 72 hrs by CCK-8 assay; format: functional, cell-based; conditions: NCI-H460, 72 h
[2] = tested on: NCI-H460; assay: Antiproliferative activity against human NCI-H460 cells harboring DOT1L R231Q mutant (unknown origin) (1 to 416 residues) assessed as inhibition of cell proliferation incubated for 72 hrs by CCK-8 assay; format: functional, cell-based; conditions: NCI-H460, 72 h
[3] = tested on: NCI-H460; assay: Antitumor activity against human NCI-H460 cells harboring DOT1L R231Q OE mutant xenografted in male BALB/c-nu mouse model assessed as tumor growth inhibition at 20 mg/kg, ip administered five times a week for 3 weeks relative to control; format: functional; conditions: NCI-H460, 504 h, read-out: TGI
[4] = tested on: NCI-H460; assay: Antiproliferative activity against human NCI-H460 cells harboring DOT1L R231Q mutant assessed as inhibition of cell proliferation incubated for 72 hrs by CCK-8 assay; format: functional, cell-based; conditions: NCI-H460, 72 h

How did the IC50 [1] turn out when `CC(C)N(CCCNC(=O)Nc1ccc(C(C)(C)C)cc1)CC1(O)CCN(c2nc(Cl)nc3[nH]ncc23)C1` (stereo unspecified) was run?
The IC50 was 6.47 µM.

What about the IC50 [2] of the same compound?
The IC50 was 14.5 µM.

Which results are given for `CC(C)(C)c1ccc(NC(=O)NCCCN(CCCN2CCOCC2)CC2(O)CCN(c3nc(Cl)nc4[nH]cnc34)C2)cc1` (stereo unspecified)?
IC50 [1]: 31.4 µM; IC50 [2]: 9.59 µM

What does the source list for `CC(C)N(CCCNC(=O)Nc1ccc(C(C)(C)C)cc1)C[C@H]1O[C@@H](n2cc(Br)c3c(N)ncnc32)[C@H](O)[C@@H]1O`?
IC50 [1]: 8.83 µM; IC50 [2]: 36 µM

With `CN(CCCNC(=O)Nc1ccc(C(C)(C)C)cc1)CC1(O)CCN(c2nc(Cl)nc3ccsc23)C1` (stereo unspecified) as the compound, how does the IC50 [1] read?
Its IC50 is 27.7 µM.

And the IC50 [2]?
Its IC50 is 50.8 µM.

Which results are given for `CC(C)N(CCCNC(=O)Nc1ccc(C(C)(C)C)cc1)CC1CCCN(C(=O)c2ccc[nH]c2=O)C1` (stereo unspecified)?
IC50 [1]: 75.7 µM; IC50 [2]: 81.2 µM

`CC(C)(C)c1ccc(NC(=O)NCCCN(CCCN2CCOCC2)CC2(O)CCN(c3nc(Cl)nc4[nH]ncc34)C2)cc1` (stereo unspecified) was tested. Which IC50 [1] did it give?
The IC50 was 18.9 µM.

What about the IC50 [2] of the same compound?
The IC50 was 7.15 µM.

How did the IC50 [1] turn out when `CN(CCCNC(=O)Nc1ccc(C(C)(C)C)cc1)CC1CCCN(c2nc(Cl)nc3[nH]cnc23)C1` (stereo unspecified) was run?
The IC50 was 23.3 µM.

What about the IC50 [2] of the same compound?
Its IC50 is 37.7 µM.

What does the source list for `CC(C)N(CCCNC(=O)Nc1ccc(C(C)(C)C)cc1)CC1(O)CCN(c2nc(Cl)nc3[nH]cnc23)C1` (stereo unspecified)?
IC50 [1]: 5.33 µM; IC50 [2]: 13.8 µM

What does the source list for `CC(C)(C)c1ccc(NC(=O)NCCCN(CCCN2CCOCC2)CC2(O)CCN(c3ncnc4[nH]cc(Br)c34)C2)cc1` (stereo unspecified)?
IC50 [1]: 45.6 µM; IC50 [2]: 36.5 µM

How did the IC50 [1] turn out when `CC(C)(C)c1ccc(NC(=O)NCCCN(CCCN2CCOCC2)CC2(O)CCN(c3ncnc4[nH]cnc34)C2)cc1` (stereo unspecified) was run?
Its IC50 is greater than 100 µM.

And the IC50 [2]?
Its IC50 is 73.1 µM.

Which IC50 [1] does the source give for `COC(=O)CCN(CCCNC(=O)Nc1ccc(C(C)(C)C)cc1)CC1(O)CCN(c2nc(Cl)nc3[nH]cnc23)C1` (stereo unspecified) here?
Its IC50 is 72.6 µM.

And the IC50 [2]?
The IC50 was 30.9 µM.

`CC(C)(C)C(=O)Nc1ccc2[nH]c(CN3CCC(N(CCCN4CCOCC4)CC4CCCN(c5nc(Cl)nc6[nH]ncc56)C4)CC3)nc2c1` (stereo unspecified) was tested. Which IC50 [1] did it give?
The IC50 was greater than 100 µM.

What about the IC50 [2] of the same compound?
Its IC50 is 52 µM.

Which IC50 [1] does the source give for `CC(C)(C)C(=O)Nc1ccc2[nH]c(CN3CCC(N(CCCN4CCOCC4)CC4CCCN(c5ncnc6[nH]cnc56)C4)CC3)nc2c1` (stereo unspecified) here?
The IC50 was greater than 100 µM.

What about the IC50 [2] of the same compound?
The IC50 was 73.8 µM.

Which results are given for `CC(C)(C)c1ccc(NC(=O)NCCCN(CCC(=O)N2CCSCC2)CC2(O)CCN(c3nc(Cl)nc4[nH]cnc34)C2)cc1` (stereo unspecified)?
IC50 [1]: 64.5 µM; IC50 [2]: 23.2 µM

With `CC(C)(C)C(=O)Nc1ccc2[nH]c(CN3CCC(N(CCCN4CCOCC4)CC4CCCN(C(=O)c5cnccn5)C4)CC3)nc2c1` (stereo unspecified) as the compound, how does the IC50 [1] read?
The IC50 was greater than 100 µM.

What about the IC50 [2] of the same compound?
Its IC50 is greater than 100 µM.

How did the IC50 [1] turn out when `CN(CCCNC(=O)Nc1ccc(C(C)(C)C)cc1)CC1CCCN(c2ncnc3[nH]cnc23)C1` (stereo unspecified) was run?
Its IC50 is 68.6 µM.

And the IC50 [2]?
Its IC50 is 64.3 µM.

Which results are given for `CN(CCCNC(=O)Nc1ccc(C(C)(C)C)cc1)CC1(O)CCN(c2nc(N)nc3[nH]cnc23)C1` (stereo unspecified)?
IC50 [1]: 23.8 µM; IC50 [2]: 44.9 µM

Which results are given for `CC(C)(C)c1ccc(NC(=O)NCCCN(CCC(=O)N2CCSCC2)CC2(O)CCN(c3ncnc4[nH]cnc34)C2)cc1` (stereo unspecified)?
IC50 [1]: > 100 µM; IC50 [2]: 89.6 µM

For `CC(C)N(CCCNC(=O)Nc1ccc(C(C)(C)C)cc1)CC1CCCN(c2cc(C#N)ccn2)C1` (stereo unspecified), which IC50 [1] is on record?
The IC50 was greater than 100 µM.

What about the IC50 [2] of the same compound?
Its IC50 is greater than 100 µM.

How did the IC50 [1] turn out when `CC(C)N(CCCNC(=O)Nc1ccc(C(C)(C)C)cc1)CC1(O)CCN(c2nc(Cl)nc3[nH]ccc23)C1` (stereo unspecified) was run?
Its IC50 is 17.6 µM.

What about the IC50 [2] of the same compound?
Its IC50 is 25.6 µM.

For `CN(CCCNC(=O)Nc1ccc(C(C)(C)C)cc1)CC1CCCN(c2cc(C#N)ccn2)C1` (stereo unspecified), which IC50 [1] is on record?
Its IC50 is greater than 100 µM.

What about the IC50 [2] of the same compound?
The IC50 was 91.2 µM.

Which results are given for `CC(C)N(CCCNC(=O)Nc1ccc(C(C)(C)C)cc1)CC1(O)CCN(c2ncnc3[nH]cc(Br)c23)C1` (stereo unspecified)?
IC50 [1]: 35.2 µM; IC50 [2]: 45.3 µM

What does the source list for `CC(C)(C)c1ccc(NC(=O)NCCCN(CCC(=O)N2CCOCC2)CC2(O)CCN(c3ncnc4[nH]cnc34)C2)cc1` (stereo unspecified)?
IC50 [1]: > 100 µM; IC50 [2]: 95.5 µM

`CC(C)(C)C(=O)Nc1ccc2nc(CN3CCC(N(CCCN4CCOCC4)C[C@H]4O[C@@H](n5cnc6c(N)ncnc65)[C@H](O)[C@@H]4O)CC3)[nH]c2c1` was tested. Which inhibition in vivo at 20 mg/kg [3] did it give?
The inhibition in vivo at 20 mg/kg was 54.4%.

What about the IC50 [4] of the same compound?
Its IC50 is 6.18 µM.

For `CC(C)(C)c1ccc(NC(=O)NCCCN(CCO)CC2(O)CCN(c3nc(N)nc4[nH]cnc34)C2)cc1` (stereo unspecified), which IC50 [1] is on record?
The IC50 was 31.2 µM.

What about the IC50 [2] of the same compound?
The IC50 was 52.6 µM.

`CC(C)N(CCCNC(=O)Nc1ccc(C(C)(C)C)cc1)CC1CCCN(c2nc(Cl)nc3[nH]cnc23)C1` (stereo unspecified) was tested. Which IC50 [1] did it give?
The IC50 was 21.8 µM.

What about the IC50 [2] of the same compound?
The IC50 was 38.7 µM.

Which results are given for `CN(CCCNC(=O)Nc1ccc(C(C)(C)C)cc1)CC1(O)CCN(c2nc(Cl)nc3[nH]ncc23)C1` (stereo unspecified)?
IC50 [1]: 8.51 µM; IC50 [2]: 21.8 µM

Which IC50 [1] does the source give for `CC(C)(C)C(=O)Nc1ccc2[nH]c(CN3CCC(N(CCCN4CCOCC4)CC4CCCN(c5nc(Cl)nc6[nH]cnc56)C4)CC3)nc2c1` (stereo unspecified) here?
Its IC50 is greater than 100 µM.

And the IC50 [2]?
Its IC50 is 48.1 µM.

With `CN(CCCNC(=O)Nc1ccc(C(C)(C)C)cc1)CC1CCCN(C(=O)c2cnccn2)C1` (stereo unspecified) as the compound, how does the IC50 [1] read?
The IC50 was greater than 100 µM.

And the IC50 [2]?
The IC50 was greater than 100 µM.

`CC(C)(C)c1ccc(NC(=O)NCCCN(CCC(=O)N2CCOCC2)CC2(O)CCN(c3nc(Cl)nc4[nH]cnc34)C2)cc1` (stereo unspecified) was tested. Which IC50 [1] did it give?
Its IC50 is 53.9 µM.

What about the IC50 [2] of the same compound?
Its IC50 is 38.4 µM.

How did the IC50 [1] turn out when `CC(C)N(CCCNC(=O)Nc1ccc(C(C)(C)C)cc1)CC1(O)CCN(c2ncnc3[nH]ccc23)C1` (stereo unspecified) was run?
Its IC50 is 54.4 µM.

And the IC50 [2]?
Its IC50 is 83.9 µM.

For `CC(C)(C)C(=O)Nc1ccc2[nH]c(CN3CCC(N(CCCN4CCOCC4)CC4CCCN(c5cc(C#N)ccn5)C4)CC3)nc2c1` (stereo unspecified), which IC50 [1] is on record?
Its IC50 is greater than 100 µM.

And the IC50 [2]?
The IC50 was 85.5 µM.

How did the IC50 [1] turn out when `CN(CCCNC(=O)Nc1ccc(C(C)(C)C)cc1)CC1(O)CCN(c2ncnc3[nH]cc(Br)c23)C1` (stereo unspecified) was run?
Its IC50 is 38.7 µM.

And the IC50 [2]?
The IC50 was 40.6 µM.

For `COC(=O)CCN(CCCNC(=O)Nc1ccc(C(C)(C)C)cc1)CC1(O)CCN(c2nc(Cl)nc3[nH]ncc23)C1` (stereo unspecified), which IC50 [1] is on record?
The IC50 was 61.7 µM.

What about the IC50 [2] of the same compound?
The IC50 was 28.4 µM.

What does the source list for `CC(C)(C)c1ccc(NC(=O)NCCCN(CCO)CC2(O)CCN(c3ncnc4[nH]cc(Br)c34)C2)cc1` (stereo unspecified)?
IC50 [1]: 41.3 µM; IC50 [2]: 47.1 µM

Which IC50 [1] does the source give for `CC(C)N(CCCNC(=O)Nc1ccc(C(C)(C)C)cc1)CC1(O)CCN(c2nc(Cl)nc3sccc23)C1` (stereo unspecified) here?
The IC50 was 7.56 µM.

And the IC50 [2]?
The IC50 was 16 µM.

How did the IC50 [1] turn out when `CC(C)N(CCCNC(=O)Nc1ccc(C(C)(C)C)cc1)CC1(O)CCN(c2nc(N)nc3[nH]cnc23)C1` (stereo unspecified) was run?
Its IC50 is 25.6 µM.

What about the IC50 [2] of the same compound?
Its IC50 is 35.7 µM.

With `CC(C)(C)c1ccc(NC(=O)NCCCN(CCCN2CCOCC2)CC2(O)CCN(c3nc(N)nc4[nH]cnc34)C2)cc1` (stereo unspecified) as the compound, how does the IC50 [1] read?
The IC50 was greater than 100 µM.

What about the IC50 [2] of the same compound?
The IC50 was 29.6 µM.

`CC(C)N(CCCNC(=O)Nc1ccc(C(C)(C)C)cc1)CC1CCCN(c2ncnc3[nH]cnc23)C1` (stereo unspecified) was tested. Which IC50 [1] did it give?
Its IC50 is 64.7 µM.

What about the IC50 [2] of the same compound?
Its IC50 is 66.5 µM.

`CC(C)(C)c1ccc(NC(=O)NCCCN(CCC(=O)N2CCSCC2)CC2(O)CCN(c3nc(Cl)nc4[nH]ncc34)C2)cc1` (stereo unspecified) was tested. Which IC50 [1] did it give?
Its IC50 is 44 µM.

What about the IC50 [2] of the same compound?
Its IC50 is 16.2 µM.

Which IC50 [1] does the source give for `CN(CCCNC(=O)Nc1ccc(C(C)(C)C)cc1)CC1CCCN(C(=O)c2ccc[nH]c2=O)C1` (stereo unspecified) here?
The IC50 was 66.3 µM.

And the IC50 [2]?
The IC50 was 83.2 µM.

Which results are given for `COC(=O)CCN(CCCNC(=O)Nc1ccc(C(C)(C)C)cc1)CC1(O)CCN(c2ncnc3[nH]cnc23)C1` (stereo unspecified)?
IC50 [1]: > 100 µM; IC50 [2]: > 100 µM

Which results are given for `CN(CCCNC(=O)Nc1ccc(C(C)(C)C)cc1)CC1(O)CCN(c2nc(Cl)nc3[nH]cnc23)C1` (stereo unspecified)?
IC50 [1]: 6.46 µM; IC50 [2]: 17.6 µM
